Laboratory results from patent publication US20170280720A1, “ARGININE […] INHIBITORS AND USES THEREOF” (EPIZYME, INC., priority 2014, published 2017).
pIC50: −log10 of the molar value.

Experiments:
Human CARM1 (PRMT4) = biological target: T1, Human CARM1 (PRMT4) (Homo sapiens, UniProt Q86X55); assay: CARM1 biochemical assay (3H-SAM Flashplate, peptide substrate); details: read-out: CARM1_ IC50
T1 construct: Flag-CARM1-His; made in house; host or cells: HEK 293F cells (BacMam baculovirus, pFastBacMam)
T1 sequence (Q86X55 2-585 isoform Q86X55-1): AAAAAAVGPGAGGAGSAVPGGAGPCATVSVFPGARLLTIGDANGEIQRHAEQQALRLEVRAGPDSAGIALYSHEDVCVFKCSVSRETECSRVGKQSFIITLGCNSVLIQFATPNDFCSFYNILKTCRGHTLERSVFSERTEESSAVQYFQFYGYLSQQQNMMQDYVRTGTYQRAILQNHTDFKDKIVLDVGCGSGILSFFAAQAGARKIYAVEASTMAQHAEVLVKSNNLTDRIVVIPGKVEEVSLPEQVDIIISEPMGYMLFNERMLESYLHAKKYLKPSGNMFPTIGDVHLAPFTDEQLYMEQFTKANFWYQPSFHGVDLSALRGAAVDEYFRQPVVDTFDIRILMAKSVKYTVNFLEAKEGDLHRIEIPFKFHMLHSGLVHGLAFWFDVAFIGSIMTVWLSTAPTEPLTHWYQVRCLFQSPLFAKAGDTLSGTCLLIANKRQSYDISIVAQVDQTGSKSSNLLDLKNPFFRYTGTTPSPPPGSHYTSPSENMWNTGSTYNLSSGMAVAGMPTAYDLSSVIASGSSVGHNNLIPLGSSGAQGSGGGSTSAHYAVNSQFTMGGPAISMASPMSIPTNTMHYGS
Source text: S-adenosylmethionine (SAM), S-adenosylhomocysteine (SAH), bicine, Tween20, dimethylsulfoxide (DMSO), bovine skin gelatin (BSG), sodium butyrate and Tris(2-carboxyethyl)phosphine hydrochloride solution (TCEP) were purchased from Sigma-Aldrich at the highest level of purity possible. ^3H-SAM was purchase from American Radiolabeled Chemicals with a specific activity of 80 Ci/mmol. 384-well streptavidin Flashplates were purchased from PerkinElmer.
Peptide representative of human histone H3 residues 16-30 was synthesized with an N-terminal linker-affinity tag motif and a C-terminal amide cap by 21st Century Biochemicals. The peptide was purified by high-performance liquid chromatography (HPLC) to greater than 95% purity and confirmed by liquid chromatography mass spectrometry (LC-MS). The sequence was Biot-Ahx-[…]-amide and contained a monomethylated arginine at position 26 (SEQ ID NO.: 14).
Human CARM1 (PRMT4) (NM_199141.1) transcript clone was amplified from an HEK 293 cDNA library, incorporating a flanking 5′ sequence encoding a FLAG tag ([…]) (SEQ ID NO.: 6) fused directly to Ala 2 of CARM1 and 3′ sequence encoding a hexa His sequence ([…]) (SEQ ID NO.: 15) fused directly to Ser 608. The gene sequence encoding isoform1 containing a deletion of amino acids 539-561 was amplified subsequently and subcloned into pFastBacMam (Viva Biotech).
Recombinant baculovirus were generated according to Bac-to-Bac kit instructions (Life Technologies). […] Infections were carried out at 37° C. for 48 hours, harvested by centrifugation, and stored at −80° C. for purification.
Column was washed with 500 mM NaCl in buffer A and Flag-CARM1-His was eluted with 200 ug/ml FLAG peptide in buffer A. Pooled fractions were dialyzed in 20 mM Tris, 150 mM NaCl, 5% glycerol and 1 mM DTT, pH 7.8. The purity of recovered protein was 94.
General Procedure for CARM1 Enzyme Assays on Peptide Substrates.
The assays were all performed in a buffer consisting of 20 mM Bicine (pH=7.6), 1 mM TCEP, 0.005% BSG, and 0.002% Tween 20, prepared on the day of use. Compounds in 100% DMSO (1 ul) were spotted into a polypropylene 384-well V-bottom plates (Greiner) using a Platemate Plus outfitted with a 384-channel head (Thermo Scientific). DMSO (1 ul) was added to Columns 11, 12, 23, 24, rows A-H for the maximum signal control and 1 ul of SAH, a known product and inhibitor of CARM1, was added to columns 11, 12, 23, 24, rows I-P for the minimum signal control. A cocktail (40 ul) containing the CARM1 enzyme was added by Multidrop Combi (Thermo-Fisher). The compounds were allowed to incubate with CARM1 for 30 min at room temperature, then a cocktail (10 ul) containing ^3H-SAM and peptide was added to initiate the reaction (final volume=51 ul). The final concentrations of the components were as follows: CARM1 was 0.25 nM, ^3H-SAM was 30 nM, peptide was 250 nM, SAH in the minimum signal control wells was 1 mM, and the DMSO concentration was 2%. The assays were stopped by the addition of non-radiolabeled SAM (10 ul) to a final concentration of 300 uM, which dilutes the ^3H-SAM to a level where its incorporation into the peptide substrate is no longer detectable. 50 ul of the reaction in the 384-well polypropylene plate was then transferred to a 384-well Flashplate and the biotinylated peptides were allowed to bind to the streptavidin surface for at least 1 hour before being washed once with 0.1% Tween20 in a Biotek ELx405 plate washer. The plates were then read in a PerkinElmer TopCount plate reader to measure the quantity of ^3H-labeled peptide bound to the Flashplate surface, measured as disintegrations per minute (dpm) or alternatively, referred to as counts per minute (cpm).
Where dpm=disintegrations per minute, cmpd=signal in assay well, and min and max are the respective minimum and maximum signal controls.
Where top and bottom are the normally allowed to float, but may be fixed at 100 or 0 respectively in a 3-parameter fit. […]

[1] = system: asymmetric di-methyl PABP1 in RKO cells; assay: In Cell Western (ICW) for asymmetric di-methyl PABP1 and DNA content in RKO cells; assay type: cell-based; details: Homo sapiens, RKO
Source text: RKO adherent cells were purchased from ATCC (American Type Culture Collection), Manassas, Va., USA. DMEM/Glutamax medium, penicillin-streptomycin, heat inactivated fetal bovine serum, 0.05% trypsin and D-PBS were purchased from Life Technologies, Grand Island, N.Y., USA. Odyssey blocking buffer, 800CW goat anti-rabbit IgG (H+L) antibody, and Licor Odyssey infrared scanner were purchased from Licor Biosciences, Lincoln, Nebr., USA. Mono-methyl arginine antibody was purchased from Cell Signaling Technology, Danvers, Mass., USA. Methanol was purchased from VWR, Franklin, Mass., USA. 10% Tween 20 was purchased from KPL, Inc., Gaithersburg, Md., USA. […] was purchased from Biostatus Limited, Leicestershire, UK. RKO adherent cells were maintained in growth medium (DMEM/Glutamax medium supplemented with 10% v/v heat inactivated fetal bovine serum and 100 units/mL penicillin-streptomycin) and cultured at 37° C. under 5% CO2. Cell Treatment, in Cell Western (ICW) for Detection of Asymmetric Di-Methyl PABP1 and DNA Content. RKO cells were seeded in assay medium at a concentration of 30,000 cells per mL to a poly-D-lysine coated 384 well culture plate (BD Biosciences 356697) with 50 μL per well. Compound (100 nL) from a 96-well source plate was added directly to 384 well cell plate. Plates were incubated at 37° C., 5% CO2 for 48 hours. After two days of incubation, plates were brought to room temperature outside of the incubator for ten minutes and blotted on paper towels to remove cell media. Cells were fixed for 20 minutes at room temperature by adding 50 μl of 8% PFA followed by aspiration of supernatant with the Biotek EL406 plate washer. Cells were then permeabilized by addition of 50 μL of ice cold 100% methanol directly to each well and incubated for 30 min at room temperature. After 30 min, plates were transferred to a Biotek EL406 plate washer and washed 2 times with 100 μL per well of wash buffer (1×PBS). Next 60 μL per well of Odyssey blocking buffer (Odyssey Buffer with 0.1% Tween 20 (v/v)) were added to each plate and incubated 1 hour at room temperature. Blocking buffer was removed and 20 μL per well of primary antibody was added (asymmetric-methyl PABP1) diluted 1:400 in Odyssey buffer with 0.1% Tween 20 (v/v)) and plates were incubated overnight (16 hours) at 4° C. Plates were washed 5 times with 100 μL per well of wash buffer. Next 20 μL per well of secondary antibody was added (1:800 800CW goat anti-rabbit IgG (H+L) antibody, 1:2000 DRAQS in Odyssey buffer with 0.1% Tween 20 (v/v)) and incubated for 1 hour at room temperature. The plates were washed 5 times with 100 μL per well wash buffer then 2 times with 100 μL per well of water. Plates were allowed to dry at room temperature then imaged on the Licor Odyssey machine which measures integrated intensity at 700 nm and 800 nm wavelengths. Both 700 and 800 channels were scanned. Calculations: First, the ratio for each well was determined by: Each plate included fourteen control wells of DMSO only treatment (minimum inhibition) as well as fourteen control wells for maximum inhibition treated with 20 μM of a reference compound. The average of the ratio values for each control type was calculated and used to determine the percent activation for each test well in the plate. Reference compound was serially diluted three-fold in DMSO for a total of nine test concentrations, beginning at 20 μM. Percent inhibition was determined and IC50 curves were generated using triplicate wells per concentration of compound.

Row | SMILES | pIC50 (Human CARM1 (PRMT4)) | pIC50 ([1]; In Cell Western) | pIC50 ([1]; 48 h)
1 | CCNC(=O)c1cc(-c2cccc(CN(C)CCNC)c2)nc2c1cnn2C(C)C [Compound 255] | 7.21 | 5.41 | –
2 | CN(CCN)Cc1cccc(-c2nc(NC3CCOCC3)c3cnn(C4CC4)c3n2)c1 [Compound 174] | 8.21 | 5.30 | –
3 | CNCCN(C)Cc1cccc(-c2cc(C(=O)NC3CC3)c3cnn(C(C)C)c3n2)c1 [Compound 228] | 7.38 | 5.72 | –
4 | CC(C)n1ncc2c(C(=O)NC3CCOC3)cc(-c3cccc(CN(C)CCN)c3)nc21 (centres unmarked) [Compound 202] | 7.72 | 5.70 | –
5 | CC(C)n1ncc2c(C(=O)N3CCC(F)(F)C3)cc(-c3cccc(CN(C)CCN)c3)nc21 [Compound 261] | 7.16 | 4.70 | –
6 | CNCCN(C)Cc1cccc(-c2cc(C(=O)N[C@@H](C)c3ccccc3)c3cnn(Cc4ccncc4)c3n2)c1 [Compound 260] | 7.17 | 4.70 | –
7 | CCN(C)C(=O)c1cc(-c2cccc(CN(C)CCN)c2)nc2c1cnn2C(C)C [Compound 230] | 7.38 | 5.12 | –
8 | Cc1c(N(C)CC2CC2)cc(-c2cccc(CN(C)CCN)c2)cc1N1CCOCC1 [Compound 241] | 7.29 | 5.24 | –
9 | CCOC(=O)Nc1cc(-c2cccc(CN(C)CCNC)c2)nc2c1cnn2C(C)C [Compound 205] | 7.71 | 5.24 | –
10 | CC(C)n1ncc2c(C(=O)N3CCSCC3)cc(-c3cccc(CN(C)CCN)c3)nc21 [Compound 258] | 7.19 | 4.73 | –
11 | CNCCN(C)Cc1cccc(-c2cc(C(=O)NCc3cn4cccc(C)c4n3)c3cnn(C(C)C)c3n2)c1 [Compound 181] | 8.02 | 6.14 | –
12 | CC(C)n1ncc2c(C(=O)NCc3cnc4ccccn34)cc(-c3cccc(CN(C)CCN)c3)nc21 [Compound 194] | 7.87 | 5.92 | –
13 | CNCCN(C)Cc1cccc(-c2cc(C(=O)NC3CCOCC3)c3cnn(C(C)C)c3n2)c1 [Compound 233, 1-isopropyl-6-(3-((methyl(2-(methylamino)ethyl)amino)methyl)phenyl)-N-(tetrahydro-2H-pyran-4-yl)-1H-pyrazolo[3,4-b]pyridine-4-carboxamide] | 7.37 | 6.07 | –
14 | CNCCN(C)Cc1cccc(-c2cc(N3CCCC3)c3cnn(C(C)C)c3n2)c1 [Compound 214] | 7.58 | 4.70 | –
15 | CC(C)n1ncc2c(C(=O)N3CCC3)cc(-c3cccc(CN(C)CCN)c3)nc21 [Compound 201] | 7.74 | 5.52 | –
16 | CNCCN(C)Cc1cccc(-c2cc(-c3ccco3)c3cnn(C(C)C)c3n2)c1 [Compound 209] | 7.66 | 4.70 | –
17 | CC(C)n1ncc2c(NC(=O)NC3CCOCC3)cc(-c3cccc(CN(C)CCN)c3)nc21 [Compound 175] | 8.16 | 4.94 | –

More lines, now with the values ahead:

Row | pIC50 (Human CARM1 (PRMT4)) | pIC50 ([1]; In Cell Western) | pIC50 ([1]; 48 h) | SMILES
18 | 6.89 | 5.09 | – | CC(C)n1ncc2c(C(=O)N(C)Cc3ccccn3)cc(-c3cccc(CN(C)CCN)c3)nc21 [Compound 282]
19 | 7.09 | 5.29 | – | CNCCN(C)Cc1cccc(-c2cc(C(=O)NC3CCOCC3)c3cnn(CC(F)(F)F)c3n2)c1 [Compound 270]
20 | 6.86 | 4.70 | – | CNCCN(C)Cc1cccc(-c2cc(C(=O)NC3CCOCC3)c3cnn(C)c3n2)c1 [Compound 284]
21 | 6.83 | – | ≤ 4.70 | Cc1cc(C)c(CNC(=O)c2cc(-c3cc(CNCCN)ccc3C)cc3c2cnn3C(C)C)c(=O)[nH]1 [Compound 388]
22 | 6.75 | 5.40 | – | CNCCN(C)Cc1cccc(-c2cc(C(=O)N(C)Cc3cccnc3)c3cnn(C(C)C)c3n2)c1 [Compound 294]
23 | 6.60 | 4.70 | – | CNCCN(C)Cc1cccc(-c2cc(C(O)c3ccncc3)c3cnn(C(C)C)c3n2)c1 (centres unmarked) [Compound 307]
24 | 6.74 | 4.80 | – | CNCCN(C)Cc1cccc(-c2cc(C(=O)N3CCN(C)C(=O)C3)c3cnn(C(C)C)c3n2)c1 [Compound 296]
25 | 7.03 | 4.70 | – | CNCCN(C)Cc1cccc(-c2cc(-c3ccc(F)cc3)c3cnn(C(C)C)c3n2)c1 [Compound 275]
